Source: US8648045B2, “VDAC1 compositions and methods of use thereof for regulating apoptosis” (Ben Gurion University of the Negev Research and Development …, priority 2005, dated 2014)

Legend:
[1] = tested on: U937 cells; assay: Apoptotic cell death of U937 cells transfected with native or mutated mVDAC1, with/without RuR (acridine orange/ethidium bromide staining); assay type: cell-based, human
Description: Logarithmically-growing U937 cells were resuspended in RPMI 1640 supplemented with 10% FCS, 100 U/ml penicillin and […] streptomycin at a concentration of 2.5×10^7 cells/ml. Cells were transfected to express rat or murine VDAC1 using the vectors pEGFP, pEGFP-VDAC1, pEGFP-E72Q-mVDAC1, pE-mVDAC1 or pE-E72Q-mVDAC1. Transfection of the U937 cells was performed by electroporation with a single pulse from a Bio-Rad micropulser II with a capacitance extender unit (200 V, […]). Cells were incubated on ice for 10 min before and after transfection, and then resuspended in 20 ml of RPMI 1640 supplemented with 10% FCS, 1 mM l-glutamine, 100 U/ml penicillin and […] streptomycin. […] GFP-positive cells were viewed under a microscope using a blue filter.
Cells were plated at a density of 5.4×10^4 cells/cm^2 in 24-well plates, washed once with PBS and placed in serum-free medium. Cells were then incubated with or without RuR or Ru360. Cells were also treated with […] staurosporine (STS) to induce apoptosis and analyzed for viability 3, 5 and 7 hrs after STS addition. Treatments with curcumin (120 μM) or As2O3 (20 μM) were carried out for 48 hrs.
Fifty six (56) hr after transfection, cells were exposed for 20 hr to RuR (1 μM) and cell viability was analyzed using acridine orange/ethidium bromide staining. In each independent experiment, approximately 250 cells were counted for each including early and late apoptotic cells. Data shown in FIG. 5 and Table 2 are the mean±SEM (n=3).

[2] = target: T1, recombinant native mVDAC1 (Mus musculus, UniProt Q60932); assay: VDAC channel recording in planar lipid bilayer (PLB); assay type: biochemical; conditions: RuR; PLB, voltage stepped 0 mV to −20 mV; mean±SD, n=9
T1 construct: made in house; host or cells: yeast (purified from mitochondria of yeast expressing mVDAC1)
T1 sequence (Q60932 14-296 limits assumed): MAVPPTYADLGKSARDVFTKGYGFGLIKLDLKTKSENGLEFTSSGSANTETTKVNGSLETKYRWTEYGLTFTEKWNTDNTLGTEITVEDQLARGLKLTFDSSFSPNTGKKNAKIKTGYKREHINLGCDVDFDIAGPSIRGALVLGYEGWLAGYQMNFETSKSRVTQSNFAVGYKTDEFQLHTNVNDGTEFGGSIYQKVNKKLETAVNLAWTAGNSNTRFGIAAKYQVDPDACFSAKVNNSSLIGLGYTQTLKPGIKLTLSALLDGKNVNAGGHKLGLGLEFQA
Description: (§1) Native and mutated mVDAC1 were extracted with lauryldimethylamine N-oxide (LDAO) from mitochondria isolated from yeast expressing various VDACs, and purified by chromatography on hydroxyapatite followed by carboxymethyl (CM)-cellulose where LDAO was replaced by β-OG (β-octylglucoside).
(§2) Reconstitution of purified VDAC into a planar lipid bilayer (PLB) multi-channel current recording and data analyses were carried as follows. Briefly, PLB were prepared from soybean asolactin dissolved in n-decane (50 mg/ml) in a chamber containing 10 mM HEPES/KOH pH 7.4 and 0.5 or 1M NaCl (cis/trans). Only PLBs with a resistance greater than 100 GΩ were used. Purified VDAC (about 1 ng) was added to the chamber defined as the cis side. After one or a few channels inserted into the PLB, excess protein was removed by perfusion of the cis chamber with 20 volumes of a solution (with the same composition as before perfusion), in order to prevent further protein incorporation. Currents were recorded under voltage-clamp mode using a Bilayer Clamp amplifier (Warner Instrument, USA). The currents were measured with respect to the trans side of the membrane (ground). The currents were low-pass filtered at 1 kHz, using a Bessal filter (Frequency Devices, USA) and digitized on-line using a Digidata 1200 interface board and pCLAMP 6 software (Axon Instruments). Sigma Plot 2000 scientific software was used for data analyses. Experiments were performed at 23-25° C.
(§3) FIG. 1A: Purified recombinant native or E72Q-mutated mVDAC1 was reconstituted into a PLB (planar lipid bilayer) in symmetrical solutions of 0.5 M NaCl. Currents through VDAC1 channel in response to a voltage step from zero to −20 mV were recorded before and 5 min after the addition of HK-I (28.6 mU/ml). The dashed lines indicate the zero-current level. […] FIG. 1C: Cytochrome c release was assayed, using a monoclonal anti-cytochrome c antibody, in the absence or the presence of HK-I (1 U/ml), chymotrypsin-treated HK-I (1 U/ml) or CsA (10 micro M).
(§4) RuR, known to interact with several Ca^2+ binding proteins and to inhibit Ca^2+ transport in mitochondria, inhibited channel activity of native but not of E72Q-mutated VDAC1 (FIG. 5E). Purified recombinant native and E72Q-mVDAC1 variant were reconstituted into a planar lipid bilayer (PLB) and the currents produced in response to voltages stepped from a holding potential of 0 mV to −20 mV were recorded. […] The level of inhibition calculated from […] different experiments was 89.2±2.8% (mean±SD, n=9). In contrast, the channel activity of E72Q-mVDAC1 was not inhibited by RuR in all ten experiments.

[3] = target: T2, E72Q-mVDAC1 (Mus musculus, UniProt Q60932, E72Q); assay: as above; assay type: biochemical; conditions: PLB, 0 mV to −20 mV; all ten experiments
T2 construct: made in house; host or cells: yeast (purified from mitochondria of yeast expressing mutated mVDAC1)
T2 sequence (Q60932 14-296 E72Q limits assumed): as the sequence (Q60932 14-296 limits assumed) above, with E59Q counted along it
Description: as §1, §2, §3, §4

[4] = target: T3, mitochondrial bound HK-I (Rattus norvegicus, UniProt P05708); assay: Detachment of mitochondria-bound HK-I; assay type: biochemical; conditions: rat brain mitochondria; HK-I activity in the supernatant
T3 construct: from tissue; host or cells: rat brain mitochondria
T3 sequence (P05708 1-918): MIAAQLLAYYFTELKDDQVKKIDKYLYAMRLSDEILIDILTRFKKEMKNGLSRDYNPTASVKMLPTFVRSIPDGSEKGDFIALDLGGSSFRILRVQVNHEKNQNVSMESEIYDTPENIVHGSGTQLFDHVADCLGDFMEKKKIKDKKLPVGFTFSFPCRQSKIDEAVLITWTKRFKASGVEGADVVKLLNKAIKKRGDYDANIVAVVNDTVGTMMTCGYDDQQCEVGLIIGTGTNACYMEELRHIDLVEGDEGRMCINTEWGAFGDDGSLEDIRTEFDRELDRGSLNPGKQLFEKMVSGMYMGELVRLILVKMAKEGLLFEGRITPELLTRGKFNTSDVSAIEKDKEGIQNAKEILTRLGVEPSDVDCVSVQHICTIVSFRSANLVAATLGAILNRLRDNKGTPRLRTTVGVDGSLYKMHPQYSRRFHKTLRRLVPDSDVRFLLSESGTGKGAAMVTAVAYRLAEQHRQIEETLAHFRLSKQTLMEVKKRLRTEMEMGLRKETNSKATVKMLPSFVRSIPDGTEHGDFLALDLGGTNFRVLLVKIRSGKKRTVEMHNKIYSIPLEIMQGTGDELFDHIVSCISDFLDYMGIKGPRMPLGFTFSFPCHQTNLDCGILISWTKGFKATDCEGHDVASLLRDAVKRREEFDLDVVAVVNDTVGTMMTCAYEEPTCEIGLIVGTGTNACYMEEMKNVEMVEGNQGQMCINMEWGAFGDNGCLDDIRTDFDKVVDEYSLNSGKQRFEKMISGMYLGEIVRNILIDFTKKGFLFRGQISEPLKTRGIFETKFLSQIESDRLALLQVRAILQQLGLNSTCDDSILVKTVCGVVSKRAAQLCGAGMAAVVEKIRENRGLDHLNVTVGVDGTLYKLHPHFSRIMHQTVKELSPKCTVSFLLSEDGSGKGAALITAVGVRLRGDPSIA

[5] = tested on: permeability transition pore (PTP); assay: PTP opening monitored by Ca2+ accumulation and mitochondrial swelling; assay type: biochemical, rat; conditions: LP1 0.1 mM or 0.3 mM; brain HK-I 0.25 U/ml pre-incubated 10 min with LP1
Description: Ca^2+ uptake by freshly prepared rat liver mitochondria (0.5 mg/ml) was assayed for 1 to 20 minutes at 30° C. in the presence of 225 mM mannitol, 75 mM sucrose, 120 μM CaCl2 (containing 3×10^4 cpm/nmol [^45Ca^2+]), 5 mM HEPES/KOH, 5 mM succinate and 0.1 mM Pi, pH 7.0. Uptake of ^45Ca^2+ was terminated by rapid Millipore filtration followed by a wash with 5 ml of 150 mM KCl.
Ca^2+-induced mitochondria large amplitude swelling was assayed in freshly-prepared mitochondria under the same conditions as for Ca^2+ accumulation, except that the temperature was 24° C. Cyclosporine A (CsA)-sensitive mitochondrial swelling was initiated upon addition of Ca^2+ (0.2 mM) to the sample. Absorbance changes at 520 nm were monitored every 15-20 sec with an Ultraspec 2100 spectrophotometer.
The failure of non-binding species of HK, such as yeast HK, or trypsin- or chymotrypsin-treated HK-I (FIG. 2D) to prevent PTP opening, confirmed the specificity of the HK-I effect, and of the requirement of the HK-I N-terminal region for its interaction with VDAC.
Mitochondrial swelling was assayed in the absence (control ●) or the presence of HK-I (gray ●) and in presence HK-I pre-incubated with peptide LP1. Mitochondrial swelling was assayed as in FIG. 2 in the absence and the presence of peptide LP1 (0.1 mM or 0.3 mM), brain HK-I (0.25 U/ml) or with HK-I pre-incubated for 10 min with LP1. […]

Row | Molecule | Apoptotic cells, % +RuR ([1]; Control (non-transfected) U937 cells, RuR 1 μM) [%] | effect on apoptotic death in control or plasmid-transfected cells ([1]; RuR) | protective effect of RuR on VDAC1 over-expression-induced cell death ([1]; cells expressing E72Q-mVDAC1, E72Q-mVDAC1-GFP or E65Q-mVDAC1) | increase in the total level of VDAC1 protein ([1]; cells expressing native mVDAC1 exposed to RuR) | protection against apoptotic cell death ([1]; cells over-expressing VDAC1 or VDAC1-GFP, 1 μM RuR for 18 hr or 5 μM RuR for 5 hr) | level of inhibition of channel activity [2] [%] | inhibition of channel activity by RuR [3] | detachment of mitochondria-bound HK-I [4] | effect on HK-I prevention of PTP opening [5]
1 | N.N.N.N.N.N.N.N.N.N.N.N.N.N.[Cl-].[Cl-].[Cl-].[Cl-].[Cl-].[Cl-].[O-2].[O-2].[Ru+3].[Ru+3].[Ru+4] [RuR, ruthenium red] | 9.1 ± 2.1 | had no effect or even slightly increased apoptotic death | not observed | over 5 fold | 64-72% | 89.2±2.8 | not inhibited | – | –
2 | WTEYGLTFTEKWNTD [Peptide LP1, 15 amino acid peptide derived from the first cytosolic β-loop of VDAC1, amino acids 63-78] | – | – | – | – | – | – | – | able to release mitochondrial bound HK-I | eliminates the HK-I prevention of PTP opening
